From ChEMBL document CHEMBL1201862, “PubChem BioAssay data set” (2004)
Calls of active or inactive are those of the source.

Key:
Estrogen receptor beta [1] = target: T1, Estrogen receptor beta (Homo sapiens, UniProt Q92731);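 note: recombinant ER-beta bound to coactivator SRC1 peptide in presence of estradiol agonist; inhibitors block coactivator peptide binding and lower the FRET signal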
Estrogen receptor beta [2] = target: T1, Estrogen receptor beta; experiment: ERβ–SRC-3 coactivator interaction inhibitors, confirmation, orthogonal assay, biochemical, ELISA, streptavidin-HRP readout (AID 1060)
Protein skinhead-1 = target: T2, Protein skinhead-1 (Caenorhabditis elegans, UniProt P34707); assay type: functional
T2 sequence (P34707 whole entry): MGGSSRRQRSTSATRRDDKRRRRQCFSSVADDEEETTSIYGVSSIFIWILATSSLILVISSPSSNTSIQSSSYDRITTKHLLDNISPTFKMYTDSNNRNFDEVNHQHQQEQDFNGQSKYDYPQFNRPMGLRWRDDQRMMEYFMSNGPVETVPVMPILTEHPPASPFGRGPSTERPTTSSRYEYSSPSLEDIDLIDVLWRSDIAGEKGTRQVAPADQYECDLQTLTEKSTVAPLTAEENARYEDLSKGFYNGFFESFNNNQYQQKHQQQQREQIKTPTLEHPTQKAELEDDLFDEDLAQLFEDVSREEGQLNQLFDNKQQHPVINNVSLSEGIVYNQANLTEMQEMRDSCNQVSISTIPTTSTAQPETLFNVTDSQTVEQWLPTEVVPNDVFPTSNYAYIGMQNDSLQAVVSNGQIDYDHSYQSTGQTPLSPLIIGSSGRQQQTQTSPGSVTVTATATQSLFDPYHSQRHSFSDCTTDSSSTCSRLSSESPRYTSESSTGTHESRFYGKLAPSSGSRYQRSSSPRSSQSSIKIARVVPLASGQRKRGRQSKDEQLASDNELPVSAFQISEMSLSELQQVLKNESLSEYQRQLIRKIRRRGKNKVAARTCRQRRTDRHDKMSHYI

Estrogen receptor = target: T3, Estrogen receptor (Homo sapiens, UniProt P03372);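 note: potency for inhibiting coactivator peptide recruitment to the receptor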
T3 sequence (P03372 whole entry): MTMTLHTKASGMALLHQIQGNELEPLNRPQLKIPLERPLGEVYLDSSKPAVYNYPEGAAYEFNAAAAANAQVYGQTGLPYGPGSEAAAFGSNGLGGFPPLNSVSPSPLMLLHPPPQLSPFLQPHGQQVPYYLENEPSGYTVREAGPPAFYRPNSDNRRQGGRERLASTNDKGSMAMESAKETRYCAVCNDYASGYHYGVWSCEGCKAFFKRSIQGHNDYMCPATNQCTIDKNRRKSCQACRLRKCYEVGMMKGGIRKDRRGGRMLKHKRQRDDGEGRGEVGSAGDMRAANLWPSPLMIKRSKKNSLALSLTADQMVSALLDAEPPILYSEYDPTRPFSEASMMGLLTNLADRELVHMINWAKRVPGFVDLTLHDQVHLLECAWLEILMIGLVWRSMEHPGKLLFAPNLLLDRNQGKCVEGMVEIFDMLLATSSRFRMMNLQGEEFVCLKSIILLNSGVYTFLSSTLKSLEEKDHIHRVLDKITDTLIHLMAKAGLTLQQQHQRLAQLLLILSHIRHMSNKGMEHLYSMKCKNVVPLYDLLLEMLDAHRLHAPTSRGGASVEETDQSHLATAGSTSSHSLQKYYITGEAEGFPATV

Galanin receptor type 2 = Galanin receptor type 2 (Homo sapiens, UniProt O43603); experiment: Dose Response cell-based high-throughput screening assay to identify antagonists of galanin receptor 2 (GALR2). [Related pubchem assays: 828, 866 ]; assay type: functional
Chain of Galanin receptor type 2 (O43603 whole entry): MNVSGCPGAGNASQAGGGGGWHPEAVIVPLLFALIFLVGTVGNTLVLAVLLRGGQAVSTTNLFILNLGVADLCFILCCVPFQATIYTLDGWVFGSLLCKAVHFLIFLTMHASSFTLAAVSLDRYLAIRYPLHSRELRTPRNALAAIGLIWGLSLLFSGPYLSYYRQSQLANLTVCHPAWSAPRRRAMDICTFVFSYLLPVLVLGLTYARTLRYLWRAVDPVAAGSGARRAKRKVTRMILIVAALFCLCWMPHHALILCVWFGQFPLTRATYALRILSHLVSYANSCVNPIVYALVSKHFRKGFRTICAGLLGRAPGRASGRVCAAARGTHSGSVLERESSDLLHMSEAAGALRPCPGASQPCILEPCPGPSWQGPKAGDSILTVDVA

[3] = cytotoxicity in MIN6 insulinoma cells, dose response, cytotoxicity control, cell-based, mouse insulinoma (AID 2122); assay type: functional;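 note: confirmatory high-throughput counterscreen run to flag cytotoxic compounds; mouse MIN-6 beta cells carrying an insulin promoter eGFP reporter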
[4] = target: Luciferin 4-monooxygenase (Photinus pyralis, UniProt P08659); experiment: Counter Screen for Luciferase-based Assay Positives. [Related pubchem assays: 620, 618, 411 ]
Chain of Luciferin 4-monooxygenase (P08659 whole entry, the tested form may be a part): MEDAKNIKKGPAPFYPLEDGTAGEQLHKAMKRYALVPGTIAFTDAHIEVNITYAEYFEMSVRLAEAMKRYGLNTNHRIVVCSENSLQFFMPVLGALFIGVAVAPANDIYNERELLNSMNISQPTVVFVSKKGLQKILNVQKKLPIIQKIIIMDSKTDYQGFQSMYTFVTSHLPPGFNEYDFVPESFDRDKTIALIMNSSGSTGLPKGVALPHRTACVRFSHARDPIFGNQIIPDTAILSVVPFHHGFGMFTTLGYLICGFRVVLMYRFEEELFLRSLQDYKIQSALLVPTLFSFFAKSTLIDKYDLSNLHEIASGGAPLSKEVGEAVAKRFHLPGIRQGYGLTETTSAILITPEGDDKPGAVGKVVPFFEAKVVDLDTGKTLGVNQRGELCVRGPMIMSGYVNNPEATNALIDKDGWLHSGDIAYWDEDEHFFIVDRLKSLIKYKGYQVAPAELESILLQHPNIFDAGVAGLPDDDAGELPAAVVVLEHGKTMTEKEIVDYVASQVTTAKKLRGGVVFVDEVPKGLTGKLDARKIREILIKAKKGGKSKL

[5] = target: Photoreceptor-specific nuclear receptor (Homo sapiens, UniProt Q9Y5X4); assay type: functional, cell-based;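 note: CHO-S cells with Gal4-NCOR and VP16-NR2E3 two-hybrid luciferase reporter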
Chain of Photoreceptor-specific nuclear receptor (Q9Y5X4 whole entry, the tested form may be a part): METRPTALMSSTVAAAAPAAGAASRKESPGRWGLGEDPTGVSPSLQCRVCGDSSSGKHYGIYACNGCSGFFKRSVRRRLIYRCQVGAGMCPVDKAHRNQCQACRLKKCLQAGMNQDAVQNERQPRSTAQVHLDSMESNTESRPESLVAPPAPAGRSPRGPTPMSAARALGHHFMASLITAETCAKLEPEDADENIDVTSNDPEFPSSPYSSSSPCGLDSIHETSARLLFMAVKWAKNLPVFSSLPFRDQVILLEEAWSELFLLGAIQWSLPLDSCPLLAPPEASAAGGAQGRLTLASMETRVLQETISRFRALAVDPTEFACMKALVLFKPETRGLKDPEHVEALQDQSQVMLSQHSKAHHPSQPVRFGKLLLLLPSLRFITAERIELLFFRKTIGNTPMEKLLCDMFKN

[6] = Luminescence Cell-Based Dose Response HTS to Identify Inhibitors of 5'UTR Stem-Loop Driven Prion Protein mRNA Translation in H4 Neuroglioblastoma Cells. [Related pubchem assays: 1827 (Project Summary), 1813 (Primary HTS)]; assay type: functional
[7] = insulin promoter down-regulators in MIN6 cells, imaging, high-content screening, mouse beta cells (AID 1628); assay type: functional
[8] = inhibitors of firefly luciferase expression or activity, dose response, H4 neuroglioma cells, luminescence (AID 1990); assay type: functional, cell-based
[9] = target: T4, Neuropeptide Y receptor type 2 (Homo sapiens, UniProt P49146); experiment: NPY-Y2 antagonist potency, selectivity check, dose response, counter-screen for NPY-Y1 antagonist project, cell-based (AID 1278); assay type: functional
T4 sequence (P49146 whole entry): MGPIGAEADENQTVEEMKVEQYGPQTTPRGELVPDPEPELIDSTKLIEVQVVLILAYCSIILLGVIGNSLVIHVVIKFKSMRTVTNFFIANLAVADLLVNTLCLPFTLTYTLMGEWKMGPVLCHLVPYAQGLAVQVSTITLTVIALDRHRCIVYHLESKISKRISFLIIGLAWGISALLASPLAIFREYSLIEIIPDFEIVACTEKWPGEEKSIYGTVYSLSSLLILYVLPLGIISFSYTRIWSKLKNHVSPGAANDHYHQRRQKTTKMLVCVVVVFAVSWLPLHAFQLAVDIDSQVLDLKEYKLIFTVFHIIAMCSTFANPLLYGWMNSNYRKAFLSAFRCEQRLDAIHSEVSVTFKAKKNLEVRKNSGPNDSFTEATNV

HT-1080 = experiment: cytotoxicity in HT1080 fibrosarcoma cells, cell-based, fluorescence readout (AID 620); assay type: functional; settings: Homo sapiens
[10] = target: T5, Neuropeptide Y receptor type 1 (Homo sapiens, UniProt P25929); experiment: NPY-Y1 receptor antagonist potency, dose response, cell-based (AID 1277); assay type: functional
T5 sequence (P25929 whole entry): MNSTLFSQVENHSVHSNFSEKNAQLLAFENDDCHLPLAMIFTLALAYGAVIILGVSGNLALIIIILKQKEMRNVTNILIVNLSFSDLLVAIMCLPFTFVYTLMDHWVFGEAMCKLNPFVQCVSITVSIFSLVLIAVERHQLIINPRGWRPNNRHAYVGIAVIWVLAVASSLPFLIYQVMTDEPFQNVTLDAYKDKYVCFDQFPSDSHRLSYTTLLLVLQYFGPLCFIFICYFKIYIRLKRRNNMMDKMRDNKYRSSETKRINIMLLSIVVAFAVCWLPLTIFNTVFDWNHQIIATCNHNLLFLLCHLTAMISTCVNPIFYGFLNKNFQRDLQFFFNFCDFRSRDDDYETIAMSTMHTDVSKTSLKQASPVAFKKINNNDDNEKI

[11] = inhibitors of SNCA 5'UTR-driven reporter translation, confirmation, H4 neuroglioma cells, luminescence (AID 1988); assay type: functional, cell-based
[12] = target: T6, DNA repair and recombination protein RAD54-like (Homo sapiens, UniProt Q92698); experiment: inhibitors of human RAD54 branch migration, confirmation, biochemical, fluorescence, cherry-picked samples, dose series (AID 651657); assay type: functional
T6 sequence (Q92698 whole entry): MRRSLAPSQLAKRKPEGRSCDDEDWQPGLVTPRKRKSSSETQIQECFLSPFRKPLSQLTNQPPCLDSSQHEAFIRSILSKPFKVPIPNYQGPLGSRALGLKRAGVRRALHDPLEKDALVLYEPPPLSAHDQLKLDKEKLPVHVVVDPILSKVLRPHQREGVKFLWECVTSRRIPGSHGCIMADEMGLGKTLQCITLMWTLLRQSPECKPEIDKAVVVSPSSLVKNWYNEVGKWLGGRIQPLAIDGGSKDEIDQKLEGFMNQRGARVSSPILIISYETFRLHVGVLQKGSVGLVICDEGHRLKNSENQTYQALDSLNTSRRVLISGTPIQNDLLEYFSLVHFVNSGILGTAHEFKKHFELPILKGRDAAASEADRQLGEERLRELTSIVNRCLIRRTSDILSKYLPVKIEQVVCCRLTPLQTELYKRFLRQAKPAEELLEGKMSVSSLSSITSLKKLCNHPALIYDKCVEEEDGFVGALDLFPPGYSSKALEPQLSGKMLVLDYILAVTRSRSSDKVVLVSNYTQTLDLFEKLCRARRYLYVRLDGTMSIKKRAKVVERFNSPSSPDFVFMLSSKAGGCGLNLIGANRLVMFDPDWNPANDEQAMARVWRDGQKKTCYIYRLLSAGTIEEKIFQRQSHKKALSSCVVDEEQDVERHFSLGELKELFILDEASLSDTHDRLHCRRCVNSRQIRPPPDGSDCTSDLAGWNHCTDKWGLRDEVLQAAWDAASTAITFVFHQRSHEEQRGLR

[13] = target: T7, DNA repair protein RAD52 homolog (Homo sapiens, UniProt P43351); assay type: functional, biochemical
T7 sequence (P43351 whole entry): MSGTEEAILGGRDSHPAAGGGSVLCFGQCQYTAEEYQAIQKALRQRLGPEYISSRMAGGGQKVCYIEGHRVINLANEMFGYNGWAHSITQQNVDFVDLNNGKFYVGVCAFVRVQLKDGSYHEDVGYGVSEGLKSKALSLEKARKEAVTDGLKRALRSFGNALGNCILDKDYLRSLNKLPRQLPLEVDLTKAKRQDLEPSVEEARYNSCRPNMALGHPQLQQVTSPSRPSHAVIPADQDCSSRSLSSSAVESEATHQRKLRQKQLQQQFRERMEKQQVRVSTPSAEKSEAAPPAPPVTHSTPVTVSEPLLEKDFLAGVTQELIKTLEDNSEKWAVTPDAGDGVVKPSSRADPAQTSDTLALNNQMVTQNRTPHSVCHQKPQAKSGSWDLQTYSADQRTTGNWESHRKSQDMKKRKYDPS

[14] = Luminescence Cell-Based Dose Confirmation HTS to Identify Inhibitors of Polyadenylation.; assay type: functional
[15] = target: DNA (cytosine-5)-methyltransferase 1 (Homo sapiens, UniProt P26358); experiment: DNMT1 methyltransferase inhibitors, confirmation, biochemical, fluorescent molecular beacon (AID 602386); assay type: functional
[16] = DNA binding of candidate compounds, dose response, artefact control for RAD54 inhibitor project, biochemical, fluorescence polarization, cherry-pick (AID 651673); assay type: functional
Bcl-2-like protein 10 = Bcl-2-like protein 10 (Homo sapiens, UniProt Q9HD36); experiment: Biochemical TR3 FP assay of Bcl-B inhibitor potency, EC50 (AID 1243); assay type: functional
Chain of Bcl-2-like protein 10 (Q9HD36 whole entry): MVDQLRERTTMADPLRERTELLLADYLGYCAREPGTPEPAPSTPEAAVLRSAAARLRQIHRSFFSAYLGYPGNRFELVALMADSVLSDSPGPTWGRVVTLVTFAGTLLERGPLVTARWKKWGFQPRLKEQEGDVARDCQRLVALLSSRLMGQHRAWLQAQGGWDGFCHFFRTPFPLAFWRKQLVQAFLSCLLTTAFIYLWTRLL

[17] = target: T8, Mannose-6-phosphate isomerase (Homo sapiens, UniProt P34949); experiment: inhibitors of human PMI, primary screen, biochemical, fluorescence intensity, coupled assay (AID 1209)
T8 sequence (P34949 whole entry): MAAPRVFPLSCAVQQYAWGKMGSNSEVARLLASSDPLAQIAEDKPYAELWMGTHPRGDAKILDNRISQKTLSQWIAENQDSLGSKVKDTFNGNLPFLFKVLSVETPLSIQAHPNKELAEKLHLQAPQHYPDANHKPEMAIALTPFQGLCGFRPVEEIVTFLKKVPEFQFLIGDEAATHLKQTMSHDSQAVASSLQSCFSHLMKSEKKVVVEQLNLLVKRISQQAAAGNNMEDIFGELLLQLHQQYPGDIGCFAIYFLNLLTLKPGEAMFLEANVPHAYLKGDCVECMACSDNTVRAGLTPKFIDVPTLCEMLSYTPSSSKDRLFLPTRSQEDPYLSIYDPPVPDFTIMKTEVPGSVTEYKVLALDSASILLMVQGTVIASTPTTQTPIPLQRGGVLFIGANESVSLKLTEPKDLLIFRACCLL

NADPH oxidase 1 = NADPH oxidase 1 (Homo sapiens, UniProt Q9Y5S8); assay type: functional, cell-based;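 note: Cell-based assay with luminescence read-out, IC50 derived from inhibitor dose-response curves; intracellular ROS from endogenous NOX1 in intact HT29 colon cancer cells; potency of inhibitors that lower the ROS luminescence signal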
Chain of NADPH oxidase 1 (Q9Y5S8 whole entry): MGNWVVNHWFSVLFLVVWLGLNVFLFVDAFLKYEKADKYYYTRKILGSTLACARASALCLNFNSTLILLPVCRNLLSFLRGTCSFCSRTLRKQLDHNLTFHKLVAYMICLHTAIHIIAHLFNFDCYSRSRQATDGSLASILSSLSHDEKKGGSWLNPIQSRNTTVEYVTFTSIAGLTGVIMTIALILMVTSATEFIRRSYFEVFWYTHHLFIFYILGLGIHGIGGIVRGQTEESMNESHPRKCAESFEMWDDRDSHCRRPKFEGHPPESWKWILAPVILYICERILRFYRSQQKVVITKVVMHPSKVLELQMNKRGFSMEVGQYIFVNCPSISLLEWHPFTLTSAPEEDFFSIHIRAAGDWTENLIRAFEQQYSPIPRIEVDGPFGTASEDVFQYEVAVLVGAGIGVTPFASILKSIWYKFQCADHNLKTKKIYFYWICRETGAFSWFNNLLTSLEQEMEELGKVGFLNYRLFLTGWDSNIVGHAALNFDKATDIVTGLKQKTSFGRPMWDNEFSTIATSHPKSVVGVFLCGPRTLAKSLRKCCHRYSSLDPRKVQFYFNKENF

[18] = Luminescence Cell-Based Dose Retest to Confirm Inhibitors of Cancer Stem Cells. [Related pubchem assays (depositor defined):AID2717, AID2721]; assay type: functional; settings: Homo sapiens
[19] = target: T9, Endoribonuclease toxin MazF (Escherichia coli K-12, UniProt P0AE70); experiment: fluorescent RNA oligo signal without MazF, dose response, counter-screen for MazEF activator project, biochemical, fluorescence, single-stranded RNase substrate (AID 588502); assay type: functional
T9 sequence (P0AE70 whole entry): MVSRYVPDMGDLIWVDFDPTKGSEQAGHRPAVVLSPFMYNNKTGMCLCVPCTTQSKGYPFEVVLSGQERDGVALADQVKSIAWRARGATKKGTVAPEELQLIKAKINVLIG

[20] = target: T9, Endoribonuclease toxin MazF; experiment: MazF toxin RNase activators, dose response, biochemical, fluorescence, single-stranded RNA substrate, uHTS hits (AID 588481); assay type: functional
[21] = target: Peroxisome proliferator-activated receptor gamma/Nuclear receptor coactivator 2 (Homo sapiens, UniProt P37231); assay type: functional;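 note: agonist potency for raising coactivator recruitment to the receptor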
[22] = target: Peroxisome proliferator-activated receptor gamma/Nuclear receptor coactivator 1 (Homo sapiens, UniProt P37231); assay type: functional;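 note: agonist potency as compounds enhance coactivator SRC-1 recruitment to PPARgamma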
[23] = target: Peroxisome proliferator-activated receptor gamma/Nuclear receptor coactivator 3 (Homo sapiens, UniProt P37231); assay type: functional;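 note: agonist potency for raising coactivator recruitment to the receptor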
Chain of Peroxisome proliferator-activated receptor gamma/Nuclear receptor coactivator 3 (P37231 whole entry): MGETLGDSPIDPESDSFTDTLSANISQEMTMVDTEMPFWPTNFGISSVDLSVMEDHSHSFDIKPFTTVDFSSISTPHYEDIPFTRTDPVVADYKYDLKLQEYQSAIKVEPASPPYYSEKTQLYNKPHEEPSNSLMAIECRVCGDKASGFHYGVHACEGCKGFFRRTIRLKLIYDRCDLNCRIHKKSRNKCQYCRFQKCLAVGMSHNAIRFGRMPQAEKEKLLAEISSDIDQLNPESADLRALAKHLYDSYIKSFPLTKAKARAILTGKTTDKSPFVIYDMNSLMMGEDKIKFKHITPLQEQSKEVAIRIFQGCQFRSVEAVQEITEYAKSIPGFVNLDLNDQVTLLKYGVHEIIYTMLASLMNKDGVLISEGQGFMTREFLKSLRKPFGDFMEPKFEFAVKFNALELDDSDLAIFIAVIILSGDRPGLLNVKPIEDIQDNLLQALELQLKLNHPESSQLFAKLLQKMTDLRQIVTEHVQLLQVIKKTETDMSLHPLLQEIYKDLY
Chain of Peroxisome proliferator-activated receptor gamma/Nuclear receptor coactivator 3 (Q9Y6Q9 whole entry, further chain): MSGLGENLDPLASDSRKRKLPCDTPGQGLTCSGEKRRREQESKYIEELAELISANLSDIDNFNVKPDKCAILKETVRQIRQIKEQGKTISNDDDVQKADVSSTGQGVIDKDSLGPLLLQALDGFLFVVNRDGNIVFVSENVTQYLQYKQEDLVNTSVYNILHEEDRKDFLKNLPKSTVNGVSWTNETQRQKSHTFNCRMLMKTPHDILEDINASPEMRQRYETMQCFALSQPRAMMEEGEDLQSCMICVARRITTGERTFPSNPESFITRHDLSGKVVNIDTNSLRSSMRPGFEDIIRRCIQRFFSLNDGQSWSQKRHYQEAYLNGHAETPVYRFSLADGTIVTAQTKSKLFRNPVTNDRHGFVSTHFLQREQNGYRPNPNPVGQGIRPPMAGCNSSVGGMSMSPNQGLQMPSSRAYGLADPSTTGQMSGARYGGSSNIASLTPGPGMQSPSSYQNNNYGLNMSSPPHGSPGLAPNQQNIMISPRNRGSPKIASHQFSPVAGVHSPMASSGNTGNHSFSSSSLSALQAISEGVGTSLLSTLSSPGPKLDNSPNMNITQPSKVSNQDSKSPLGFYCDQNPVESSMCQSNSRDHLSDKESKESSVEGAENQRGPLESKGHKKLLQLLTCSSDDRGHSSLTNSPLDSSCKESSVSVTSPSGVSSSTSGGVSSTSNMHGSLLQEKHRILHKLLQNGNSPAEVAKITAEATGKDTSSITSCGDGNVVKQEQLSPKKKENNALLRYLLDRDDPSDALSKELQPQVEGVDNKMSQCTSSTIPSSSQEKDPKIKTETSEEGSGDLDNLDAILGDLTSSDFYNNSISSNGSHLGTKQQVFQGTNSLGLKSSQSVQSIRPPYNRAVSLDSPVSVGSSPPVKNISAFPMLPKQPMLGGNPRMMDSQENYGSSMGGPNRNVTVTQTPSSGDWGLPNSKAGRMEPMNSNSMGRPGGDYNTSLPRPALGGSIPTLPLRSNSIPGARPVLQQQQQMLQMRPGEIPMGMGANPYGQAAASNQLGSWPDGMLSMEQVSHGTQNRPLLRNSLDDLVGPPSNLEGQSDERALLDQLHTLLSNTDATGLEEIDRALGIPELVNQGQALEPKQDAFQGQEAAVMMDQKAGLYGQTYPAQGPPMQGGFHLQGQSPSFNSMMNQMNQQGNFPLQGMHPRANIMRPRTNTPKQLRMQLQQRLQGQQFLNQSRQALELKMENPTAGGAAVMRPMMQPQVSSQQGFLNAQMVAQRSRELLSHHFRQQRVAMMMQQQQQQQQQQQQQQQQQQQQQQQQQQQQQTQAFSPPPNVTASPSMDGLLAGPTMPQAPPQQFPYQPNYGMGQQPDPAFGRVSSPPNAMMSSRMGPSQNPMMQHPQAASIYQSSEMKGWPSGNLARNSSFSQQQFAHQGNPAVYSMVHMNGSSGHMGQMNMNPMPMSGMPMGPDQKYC

T1 sequence (Q92731 whole entry): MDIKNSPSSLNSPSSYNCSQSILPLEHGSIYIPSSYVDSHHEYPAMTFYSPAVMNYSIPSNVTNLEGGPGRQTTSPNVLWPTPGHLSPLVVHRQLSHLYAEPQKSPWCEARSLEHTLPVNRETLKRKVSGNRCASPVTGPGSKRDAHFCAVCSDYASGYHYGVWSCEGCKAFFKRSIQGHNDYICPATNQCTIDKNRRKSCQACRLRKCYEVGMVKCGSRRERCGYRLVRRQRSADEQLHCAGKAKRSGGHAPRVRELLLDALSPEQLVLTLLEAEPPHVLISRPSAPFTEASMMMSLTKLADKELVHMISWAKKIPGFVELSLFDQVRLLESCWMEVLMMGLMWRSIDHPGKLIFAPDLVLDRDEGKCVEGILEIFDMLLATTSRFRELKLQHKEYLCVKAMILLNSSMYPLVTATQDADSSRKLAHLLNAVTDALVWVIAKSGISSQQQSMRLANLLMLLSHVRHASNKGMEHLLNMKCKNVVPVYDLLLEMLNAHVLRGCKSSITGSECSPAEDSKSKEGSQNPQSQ

Cc1ccc(-c2csc(NC(=O)c3ccno3)n2)cc1
IC50 (Estrogen receptor beta [1]): 3.87 µM (active) | IC50 (Estrogen receptor beta [2]): < 0.023 µM (not active) | IC50 (Protein skinhead-1): > 100 µM (inactive) | IC50 (Estrogen receptor): 7.19 µM (active)

Cc1cc(C(=O)CSc2nc3ccccc3[nH]2)c(C)n1CC1CCCO1 (centres undefined)
IC50 (Galanin receptor type 2): > 42 µM (not active) | IC50 [3]: 0.874 µM (active) | EC50 [4]: > 100 µM (not active) | IC50 [5]: 11.7 µM (inactive) | EC50 [6]: 8.51 µM (active) | IC50 [7]: 1.2 µM (active) | EC50 [8]: 7.29 µM (inconclusive) | IC50 [9]: > 35 µM (not active) | EC50 (HT-1080): > 50 µM (not active) | IC50 [10]: > 35 µM (not active) | EC50 [11]: 4.95 µM (active)

CN(C)CCc1cc2c(c3c1ccc1ccccc13)OCO2
AC50 [12]: 4.76 µM (active) | AC50 [13]: 1.29 µM (active) | EC50 [14]: > 120 µM (not active) | IC50 [15]: > 99 µM (inactive) | AC50 [16]: 39.9 µM (active)

Oc1ccc(Nc2nc(-c3ccccn3)cs2)cc1
EC50 (Bcl-2-like protein 10): 3.69 µM (active)

COc1ccc(NC(=O)C2CC(=O)n3cnnc3S2)cc1 (centres undefined)
IC50 [17]: > 50 µM (not active)

O=C(Nc1ccc(OCc2ccccc2)cc1)Nc1ccc(N2CCCCC2)cc1
IC50 (NADPH oxidase 1): > 17 µM (not active)

Cn1c(/C(C#N)=C(\O)COc2ccc3ccccc3c2)nc2ccccc21
AC50 [18]: < 0.16 µM (active) | EC50 [19]: > 99 µM (inactive) | EC50 [20]: > 99 µM (inactive) | EC50 [21]: > 79.4 µM (not active) | EC50 [22]: > 79.4 µM (not active) | EC50 [23]: > 79.4 µM (not active)
